Test results as given in patent US20250059188A1, “ARYLSULPHONAMIDE COMPOUNDS” (Anaxis Pharma Pty Ltd, priority 2021, published 2025).
pIC50, pKd: −log10 of the molar value.

How the values were obtained:
[1] = biological target: human RIPK1 (Homo sapiens (Human), UniProt Q13546); test: KINOMEscan binding assay, human RIPK1; conditions: equilibrium dissociation constant
Procedure, shortened: (§1)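 Kd values come from dose-response fits to the Hill equation (Hill slope −1, Levenberg–Marquardt least squares). Compound competed with bead-bound ligand for tagged kinase, and remaining kinase was measured by qPCR after elution. Dilution series: 11 points, 3-fold, 1% DMSO final, top 30,000 nM in most runs.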

[2] = tested on: Immortalised Mouse Dermal Fibroblasts (MDFs); test: Inhibition of TSI induced necroptosis in mouse dermal fibroblasts (CellTitre-Glo); conditions: Mus musculus, Fibroblast, 3 h, MDF cells, TSI cocktail (TNF, Smac mimetic, IDN-6556), read-out: Inhibition of TSI-induced necroptosis (IC50 cell-based assay) in MDF
Procedure, shortened: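 Immortalised MDFs (2200 cells/well, DMEM + 7.4% FBS) pretreated 30 min with compound (36 μM top, 1:3, 10 points, 0.3% DMSO), then 3 h with TNF 100 ng/ml, Smac mimetic 500 nM and IDN-6556 10 μM at 37 °C. Viability by CellTiter-Glo luminescence; IC50 from 4-parameter logistic fit.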

[3] = biological target: human MLKL (full length) (Homo sapiens (Human), UniProt Q8NB16); test: KINOMEscan binding assay, human MLKL (full length); conditions: equilibrium dissociation constant
Procedure, shortened: as §1

human RIPK1, sequence (Q13546 whole entry): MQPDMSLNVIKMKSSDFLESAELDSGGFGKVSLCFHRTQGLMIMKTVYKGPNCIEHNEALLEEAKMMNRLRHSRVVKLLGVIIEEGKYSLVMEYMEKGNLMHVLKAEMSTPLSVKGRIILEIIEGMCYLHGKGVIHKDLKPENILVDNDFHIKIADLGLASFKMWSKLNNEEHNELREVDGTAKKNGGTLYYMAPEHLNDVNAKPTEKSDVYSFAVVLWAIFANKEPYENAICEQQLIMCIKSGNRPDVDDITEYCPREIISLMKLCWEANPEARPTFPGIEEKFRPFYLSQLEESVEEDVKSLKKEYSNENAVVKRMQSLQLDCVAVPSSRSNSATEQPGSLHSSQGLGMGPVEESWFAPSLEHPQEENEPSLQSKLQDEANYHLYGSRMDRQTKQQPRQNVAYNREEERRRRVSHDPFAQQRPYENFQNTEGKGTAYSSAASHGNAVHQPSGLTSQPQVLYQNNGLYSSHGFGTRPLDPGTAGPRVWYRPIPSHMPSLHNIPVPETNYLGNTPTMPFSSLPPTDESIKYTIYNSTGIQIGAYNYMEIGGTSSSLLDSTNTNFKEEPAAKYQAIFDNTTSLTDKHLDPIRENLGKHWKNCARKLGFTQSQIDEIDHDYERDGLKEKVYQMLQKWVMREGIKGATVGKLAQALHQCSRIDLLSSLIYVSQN
human MLKL (full length), sequence (Q8NB16 whole entry): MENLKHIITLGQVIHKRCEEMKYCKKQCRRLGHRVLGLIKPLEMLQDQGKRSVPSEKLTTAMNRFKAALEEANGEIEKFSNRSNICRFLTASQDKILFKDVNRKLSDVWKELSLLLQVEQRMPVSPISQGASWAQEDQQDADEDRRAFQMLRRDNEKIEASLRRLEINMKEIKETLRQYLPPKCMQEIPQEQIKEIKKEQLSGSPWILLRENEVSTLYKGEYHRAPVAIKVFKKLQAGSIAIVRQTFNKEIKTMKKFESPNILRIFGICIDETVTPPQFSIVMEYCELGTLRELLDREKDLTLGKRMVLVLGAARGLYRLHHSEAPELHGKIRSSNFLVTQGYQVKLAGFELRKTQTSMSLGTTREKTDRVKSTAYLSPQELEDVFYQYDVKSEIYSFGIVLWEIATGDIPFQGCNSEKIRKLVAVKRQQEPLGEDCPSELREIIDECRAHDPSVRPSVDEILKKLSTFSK

pKd [1]: < 5.00 | pKd [3]: > 9.00
SMILES: COCCn1cc(-c2cnc(N)c3c(-c4ccc(NS(=O)(=O)C(F)F)c(O[C@@H](C)c5ccc(F)cc5)c4)nn(C)c23)cn1 [Compound 29, (S)-N-(4-(4-amino-7-(1-(2-methoxyethyl)-1H-pyrazol-4-yl)-1-methyl-1H-pyrazolo[4,3-c]pyridin-3-yl)-2-(1-(4-fluorophenyl)ethoxy)phenyl)-1,1-difluoromethanesulfonamide]
pIC50 [2]: 5.00 to 6.00
